Reference: patent US9932354B2, “Imidazo-oxadiazole and imidazo-thiadiazole derivatives” (Ares Trading S.A., priority 2012, dated 2018)

What was measured:
[1] = system: Amyloid-β peptide release (Aβ42), HEK cells overexpressing APP (HEK-APP); assay: Amyloid-β peptide release (Aβ42) assay, AlphaLISA on supernatant of HEK-APP cells; format: cell-based; conditions: Homo sapiens, HEK293, 24 h incubation with compound, read-out: Ab42 IC50 Ranges
Experimental: (§1) Amyloid-β Peptide Release (Aβ42 & AβTotal) Assay to Determine IC50 Values.
(§2) Compounds are dissolved in and diluted in 100% DMSO and incubated with HEK-APP cells for 24 h at 37° C. in 5% CO2. The supernatant from HEK-APP cells are mixed with antibodies: for Aβ42 detection: AlphaLISA Amyloid-β 1-42 Kit (Perkin Elmer AL203L) Anti-Amyloid β1-42-specific antibody acceptor beads, biotinylated anti-Amyloid-“β1-42” antibody and streptavidin (SA) donor beads diluted in AlphaLISA buffer (to the instructions of the supplier). For Aβ total detection: Custom Anti-Amyloid-βtotal acceptor beads (6E10 acceptor beads), biotinylated anti-Amyloid “β1-42” antibody (Perkin Elmer AL203L) and streptavidin (SA) donor beads diluted in AlphaLISA buffer (to the instructions of the supplier). After addition of supernatant to the antibody mix, the assay is incubated for 4.5 h. Amyloid-β peptide release (Aβ42 & AβTotal) is measured with a Pherastar FS (BMG) multimode reader using the alphascreen module.

[2] = system: Amyloid-β peptide release (AβTotal), HEK cells overexpressing APP (HEK-APP); assay: Amyloid-β peptide release (AβTotal) assay, AlphaLISA on supernatant of HEK-APP cells; format: cell-based; conditions: ratio Abtot vs Ab42, HEK-APP cells, 24 h
Experimental: as §1, §2

| SMILES | IC50 [1] [nM] | Abtot/Ab42 selectivity ranges [2] |
| --- | --- | --- |
| Cc1ncc2oc(-c3ccc(NC(=O)Cc4ccccc4C(F)(F)F)cc3)nn12 [Example 1, N-[4-(5-Methyl-imidazo[5,1-b][1,2,4]oxadiazol-2-yl)-phenyl]-2-(2-trifluoromethyl-phenyl)-acetamide] | 500 to 1000 | b (b: 100 fold > selectivity ≥ 50 fold) |
| Cc1cccc(CC(=O)Nc2ccc(-c3nn4c(C)ncc4o3)cc2)c1 [Example 2, N-[4-(5-Methyl-imidazo[5,1-b][1,2,4]oxadiazol-2-yl)-phenyl]-2-m-tolyl-acetamide] | 1000 to 2200 | c (c: 50 fold > selectivity ≥ 10 fold) |
| Cc1ncc2oc(-c3ccc(NC(=O)Cc4cccc(C(F)(F)F)c4)cc3)nn12 [Example 3, N-[4-(5-Methyl-imidazo[5,1-b][1,2,4]oxadiazol-2-yl)-phenyl]-2-(3-trifluoromethyl-phenyl)-acetamide] | 1000 to 2200 | c (c: 50 fold > selectivity ≥ 10 fold) |
| Cc1ncc2oc(-c3ccc(NC(=O)Cc4ccc(Cl)c(C(F)(F)F)c4)cc3)nn12 [Example 4] | 1000 to 2200 | c (c: 50 fold > selectivity ≥ 10 fold) |
| Cc1ncc2oc(-c3ccc(NC(=O)Cc4ccc(C(F)(F)F)cc4Br)cc3)nn12 [Example 5, 2-(2-Bromo-4-trifluoromethyl-phenyl)-N-[4-(5-methyl-imidazo[5,1-b][1,2,4]oxadiazol-2-yl)-phenyl]-acetamide] | 500 to 1000 | c (c: 50 fold > selectivity ≥ 10 fold) |
| Cc1ncc2oc(-c3ccc(NC(=O)Cc4ccc(OC(F)(F)F)cc4)cc3)nn12 [Example 6, N-[4-(5-Methyl-imidazo[5,1-b][1,2,4]oxadiazol-2-yl)-phenyl]-2-(4-trifluoromethoxy-phenyl)-acetamide] | 500 to 1000 | c (c: 50 fold > selectivity ≥ 10 fold) |
| Cc1ncc2oc(-c3ccc(NC(=O)Cc4c(F)cc(Cl)cc4F)cc3)nn12 [Example 7, 2-(4-Chloro-2,6-difluoro-phenyl)-N-[4-(5-methyl-imidazo[5,1-b][1,2,4]oxadiazol-2-yl)-phenyl]-acetamide] | 500 to 1000 | b (b: 100 fold > selectivity ≥ 50 fold) |
| CCOc1ccc(CC(=O)Nc2ccc(-c3nn4c(C)ncc4o3)cc2)cc1 [Example 8, 2-(4-Ethoxy-phenyl)-N-[4-(5-methyl-imidazo[5,1-b][1,2,4]oxadiazol-2-yl)-phenyl]-acetamide] | 1000 to 2200 | c (c: 50 fold > selectivity ≥ 10 fold) |
| Cc1ncc2oc(-c3ccc(NC(=O)Cc4cccc(Br)c4)cc3)nn12 [Example 9, 2-(3-Bromo-phenyl)-N-[4-(5-methyl-imidazo[5,1-b][1,2,4]oxadiazol-2-yl)-phenyl]-acetamide] | 500 to 1000 | c (c: 50 fold > selectivity ≥ 10 fold) |
| Cc1ccc(C)c(CC(=O)Nc2ccc(-c3nn4c(C)ncc4o3)nc2)c1 [Example 10, 2-(2,5-Dimethyl-phenyl)-N-[6-(5-methyl-imidazo [5,1-b][1,2,4]oxadiazol-2-yl)-pyridin-3-yl]-acetamide] | 1000 to 2200 | c (c: 50 fold > selectivity ≥ 10 fold) |
| Cc1ncc2oc(-c3ccc(NC(=O)Cc4ccc(OC(F)(F)F)cc4)cn3)nn12 [Example 11, N-[6-(5-Methyl-imidazo[5,1-b][1,2,4]oxadiazol-2-yl)-pyridin-3-yl]-2-(4-trifluoromethoxy-phenyl)-acetamide] | 100 to 500 | b (b: 100 fold > selectivity ≥ 50 fold) |
| Cc1ncc2oc(-c3ccc(NC(=O)Cc4ccc(Cl)c(Cl)c4)cn3)nn12 [Example 12, 2-(3,4-Dichloro-phenyl)-N-[6-(5-methyl-imidazo[5,1-b][1,2,4]oxadiazol-2-yl)-pyridin-3-yl]-acetamide] | 500 to 1000 | c (c: 50 fold > selectivity ≥ 10 fold) |
| Cc1ncc2oc(-c3ccc(NC(=O)Cc4cccc5ccccc45)cn3)nn12 [Example 13, N-[6-(5-Methyl-imidazo[5,1-b][1,2,4]oxadiazol-2-yl)-pyridin-3-yl]-2-naphthalen-1-yl-acelamide] | 1000 to 2200 | c (c: 50 fold > selectivity ≥ 10 fold) |
| Cc1ncc2oc(-c3ccc(NC(=O)Cc4cccc(C(F)(F)F)c4)cn3)nn12 [Example 14, N-[6-(5-Methyl-imidazo[5,1-b][1,2,4]oxadiazol-2-yl)-pyridin-3-yl]-2-(3-trifluoromethyl-phenyl)-acetamide] | 1000 to 2200 | c (c: 50 fold > selectivity ≥ 10 fold) |
| Cc1ncc2oc(-c3ccc(NC(=O)Cc4cccc(Oc5ccccc5)c4)cn3)nn12 [Example 15, N-[6-(5-Methyl-imidazo[5,1-b][1,2,4]oxadiazol-2-yl)-pyridin-3-yl]-2-(3-phenoxy-phenyl)-acetamide] | 500 to 1000 | b (b: 100 fold > selectivity ≥ 50 fold) |
| Cc1ncc2oc(-c3ccc(NC(=O)c4ccc(F)c(OC(F)(F)F)c4)cn3)nn12 [Example 16, 4-Fluoro-N-[6-(5-methyl-imidazo[5,1-b][1,2,4]oxadiazol-2-yl)-pyridin-3-yl]-3-trifluoromethoxy-benzamide] | 1000 to 2200 | d (d: 10 fold > selectivity) |
| COc1cc(C(=O)NCc2cccc(C(F)(F)F)c2)ccc1-c1nn2c(C)ncc2o1 [Example 18, 3-Methoxy-4-(5-methyl-imidazo[5,1-b][1,2,4]oxadiazol-2-yl)-N-(3-trifluoromethyl-benzyl)-benzamide] | 1000 to 2200 | c (c: 50 fold > selectivity ≥ 10 fold) |
| COc1cc(C(=O)NCc2ccc(Cl)c(Cl)c2)ccc1-c1nn2c(C)ncc2o1 [Example 19, N-(3,4-Dichloro-benzyl)-3-methoxy-4-(5-methyl-imidazo[5,1-b][1,2,4]oxadiazol-2-yl)-benzamide] | 1000 to 2200 | c (c: 50 fold > selectivity ≥ 10 fold) |
| COc1cc(C(=O)NCc2cccc3ccccc23)ccc1-c1nn2c(C)ncc2o1 [Example 20, 3-Methoxy-4-(5-methyl-imidazo[5,1-b][1,2,4]oxadiazol-2-yl)-N-naphthalen-1-ylmethyl-benzamide] | 1000 to 2200 | c (c: 50 fold > selectivity ≥ 10 fold) |
| CCc1ncc2oc(-c3ccc(C(=O)NCc4cccc5ccccc45)cc3)nn12 [Example 21] | 1000 to 2200 | c (c: 50 fold > selectivity ≥ 10 fold) |
| Cc1nc(C)n2nc(-c3ccc(C(=O)NCc4cccc5ccccc45)cc3)oc12 [Example 22, 4-(5,7-Dimethyl-imidazo[5,1-b][1,2,4]oxadiazol-2-yl)-N-naphthalen-1-ylmethyl-benzamide] | 500 to 1000 | c (c: 50 fold > selectivity ≥ 10 fold) |
| Cc1nc(C)n2nc(-c3ccc(C(=O)NCc4ccccc4C(F)(F)F)cc3)oc12 [Example 23, 4-(5,7-Dimethyl-imidazo[5,1-b][1,2,4]oxadiazol-2-yl)-N-(2-trifluoromethyl-benzyl)-benzamide] | 1000 to 2200 | c (c: 50 fold > selectivity ≥ 10 fold) |
| Cc1ncc2oc(-c3ccc(Nc4nc5n(n4)CCCC5c4ccc(F)cc4)cc3)nn12 (stereo not drawn) [Example 24, 8-(4-fluorophenyl)-N-(4-(5-methylimidazo[5,1-b][1,3,4]oxadiazol-2-yl)phenyl)-5,6,7,8-tetrahydro-[1,2,4]triazolo[1,5-a]pyridin-2-amine] | 500 to 1000 | c (c: 50 fold > selectivity ≥ 10 fold) |
| Cc1ncc2oc(-c3ccc(Nc4nc5n(n4)CCCC5c4ccc(Cl)cc4Cl)cc3)nn12 (stereo not drawn) [Example 25, [8-(2,4-Dichloro-phenyl)-5,6,7,8-tetrahydro-[1,2,4]triazolo[1,5-a]pyridin-2-yl]-[4-(5-methyl-imidazo[5,1-b][1,2,4]oxadiazol-2-yl)-phenyl]-amine] | 500 to 1000 | c (c: 50 fold > selectivity ≥ 10 fold) |
| Cc1ncc2oc(-c3ccc(Nc4nc5c(s4)CCCC5c4ccccc4)cc3)nn12 (stereo not drawn) [Example 26, [4-(5-Methyl-imidazo[5,1-b][1,2,4]oxadiazol-2-yl)-phenyl]-(4-phenyl-4,5,6,7-tetrahydro-benzothiazol-2-yl)-amine] | 1000 to 2200 | c (c: 50 fold > selectivity ≥ 10 fold) |
| Cc1ncc2oc(-c3ccc(Nc4nc5c(s4)CCCC5c4ccc(F)cc4)cc3)nn12 (stereo not drawn) [Example 27, [4-(4-Fluoro-phenyl)-4,5,6,7-tetrahydro-benzothiazol-2-yl]-[4-(5-methyl-imidazo[5,1-b][1,2,4]oxadiazol-2-yl)-phenyl]-amine] | 1000 to 2200 | d (d: 10 fold > selectivity) |
| Cc1ncc2oc(-c3ccc(NCc4ccc(Cl)c(Cl)c4)cn3)nn12 [Example 28] | 100 to 500 | d (d: 10 fold > selectivity) |
| Cc1ncc2oc(-c3ccc(Nc4ccn(Cc5ccc(Cl)cc5)n4)cc3)nn12 [Example 29, [1-(4-Chloro-benzyl)-1H-pyrazol-3-yl]-[4-(5-methyl-imidazo[5,1-b][1,2,4]oxadiazol-2-yl)-phenyl]-amine] | 1000 to 2200 | d (d: 10 fold > selectivity) |
| Cc1ncc2sc(C(=O)N3CCCC3c3ccc(Cl)cc3)nn12 (stereo not drawn) [Example 118, [2-(4-Chloro-phenyl)-pyrrolidin-1-yl]-(5-methyl-imidazo[5,1-b][1,3,4]thiadiazol-2-yl)-methanone] | 100 to 500 | – |
